Data: the supplement of paper PMC4862054

Assays:
Conditions in all cases: incubation time: 72 h
MFM-223 = experiment: drug sensitivity score (DSS), CellTiter-Glo (DSS (AUC-based score)); higher = stronger drug effect (viability inhibition or cytotoxicity); extreme values may be limits of the assay
In short: (§1)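 For 72 h, breast cancer cell lines seeded at 20 µl suspension per well in 384-well plates were incubated with compound at 5 concentrations in 10-fold steps spanning a 10,000-fold range that differed by compound. The first reading was CellTox Green fluorescence at 485/520 nm, and the second was CellTiter-Glo luminescence after 10 min at room temperature. Both were normalised per plate to 0.1 % DMSO and a positive kill control, and the drug sensitivity score was obtained from the area under the fitted dose-response curve.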

MDA-MB-453 = experiment: as above
In short: as §1

HCC1143 = experiment: as above
In short: as §1

SK-BR-3 = experiment: as above
In short: as §1

BT-474 = experiment: as above
In short: as §1

CAL-148 [1] = experiment: as above
In short: as §1

MDA-MB-436 = experiment: as above
In short: as §1

MCF-10A = experiment: as above
In short: as §1

Hs578T [2] = experiment: as above
In short: as §1

CAL-120 = experiment: as above
In short: as §1

DU-4475 = experiment: as above
In short: as §1

MDA-MB-231 = experiment: as above
In short: as §1

HCC1937 = experiment: as above
In short: as §1

CAL-85-1 = experiment: as above
In short: as §1

BT-549 = experiment: as above
In short: as §1

CAL-51 = experiment: as above
In short: as §1

MDA-MB-468 [3] = experiment: as above
In short: as §1

HDQ-P1 [4] = experiment: as above
In short: as §1

HCC1599 = experiment: as above
In short: as §1

CAL-148 [5] = experiment: drug sensitivity score (DSS), CellTox Green (DSS (AUC-based score)); higher = stronger drug effect (viability inhibition or cytotoxicity); extreme values may be limits of the assay
In short: as §1

Hs578T [6] = experiment: as above
In short: as §1

MDA-MB-468 [7] = experiment: as above
In short: as §1

HDQ-P1 [8] = experiment: as above
In short: as §1

| SMILES | drug sensitivity score (MFM-223) | drug sensitivity score (MDA-MB-453) | drug sensitivity score (HCC1143) | drug sensitivity score (SK-BR-3) | drug sensitivity score (BT-474) | drug sensitivity score (CAL-148 [1]) | drug sensitivity score (MDA-MB-436) | drug sensitivity score (MCF-10A) | drug sensitivity score (Hs578T [2]) | drug sensitivity score (CAL-120) | drug sensitivity score (DU-4475) | drug sensitivity score (MDA-MB-231) | drug sensitivity score (HCC1937) | drug sensitivity score (CAL-85-1) | drug sensitivity score (BT-549) | drug sensitivity score (CAL-51) | drug sensitivity score (MDA-MB-468 [3]) | drug sensitivity score (HDQ-P1 [4]) | drug sensitivity score (HCC1599) | drug sensitivity score (CAL-148 [5]) | drug sensitivity score (Hs578T [6]) | drug sensitivity score (MDA-MB-468 [7]) | drug sensitivity score (HDQ-P1 [8]) |
| --- | --- | --- | --- | --- | --- | --- | --- | --- | --- | --- | --- | --- | --- | --- | --- | --- | --- | --- | --- | --- | --- | --- | --- |
| CC(C)NC[C@@H](C(=O)N1CCN(c2ncnc3c2[C@H](C)C[C@H]3O)CC1)c1ccc(Cl)cc1 [GDC-0068] | 16.6 | 10.4 | 2.35 | 6.46 | 0.706 | 19.6 | 1.1 | 3.41 | 3.59 | 3.43 | 1.13 | 0 | 3.46 | 2.16 | 6.02 | 8.39 | 8.65 | 7.19 | 0 | 14.1 | 0 | 3.49 | 0.469 |
| C[C@@H]1C[C@H]2[C@@H]3CCC4=CC(=O)C=C[C@]4(C)[C@@]3(F)[C@@H](O)C[C@]2(C)[C@@]1(O)C(=O)CO [Dexamethasone] | 0 | 4 | 0 | 0 | 0 | 0 | 0 | 0 | 0 | 10.1 | 0 | 0 | 0 | 0 | 0 | 0 | 0 | 4.16 | 0 | 0 | 1.94 | 0 | 0 |
| Cc1cc2c(F)c(Oc3ncnn4cc(OC[C@@H](C)O)c(C)c34)ccc2[nH]1 [Brivanib] | 0 | 0 | 0 | 0 | 0 | 0 | 0 | 0 | 0 | 0 | 0 | 0 | 0 | 0 | 0 | 1.49 | 0 | 0 | 0 | 0 | 0 | 0 | 0 |
| CC(C)C[C@H](NC(=O)[C@H](CCc1ccccc1)NC(=O)CN1CCOCC1)C(=O)N[C@@H](Cc1ccccc1)C(=O)N[C@@H](CC(C)C)C(=O)[C@@]1(C)CO1 [Carfilzomib] | 28.1 | 22.7 | 23.5 | 26.9 | 21.8 | 17.4 | 26.5 | 12.2 | 22.9 | 19 | 15.4 | 21.4 | 20.6 | 25.2 | 29.5 | 22.1 | 29.9 | 20.7 | 10.9 | 19 | 16.7 | 37.2 | 19.1 |
| Nc1nc(Cl)nc2c1ncn2[C@@H]1O[C@H](CO)[C@@H](O)[C@@H]1F [Clofarabine] | 0 | 0 | 10.8 | 12.7 | 5.27 | 8.43 | 16 | 5.94 | 1.74 | 4.58 | 6.22 | 1.71 | 0 | 10.6 | 14.3 | 17.6 | 11.7 | 3.38 | 9.47 | 7.09 | 0 | 0.395 | 0 |
| COc1cc2c(Oc3ccc(NC(=O)C4(C(=O)Nc5ccc(F)cc5)CC4)cc3F)ccnc2cc1OCCCN1CCOCC1 [Foretinib] | 6.22 | 0 | 1.22 | 0 | 2.19 | 1.11 | 0.456 | 1.41 | 0 | 2.45 | 0 | 2.4 | 0 | 0 | 0 | 1.01 | 1.64 | 0 | 0 | 1.71 | 2.65 | 3.1 | 0 |
| O=NN(CCCl)C(=O)NC1CCCCC1 [Lomustine] | 0 | 0 | 0 | 0 | 0 | 0 | 0 | 0 | 0 | 0 | 0 | 0 | 0 | 0 | 0 | 0 | 0 | 0 | 0 | 0 | 0 | 0 | 0 |
| Cn1cc(C[C@@H](N)C(=O)O)c2ccccc21 [1-methyl-D-tryptophan] | 0 | 0 | 0 | 0 | 0 | 0 | 0 | 0 | 0 | 0 | 0 | 0 | 0 | 0 | 0 | 0 | 0 | 0 | 0 | 0 | 3.13 | 1.22 | 1.12 |
| COc1cc2c(N3CCN(C(=O)Nc4ccc(OC(C)C)cc4)CC3)ncnc2cc1OCCCN1CCCCC1 [Tandutinib] | 0 | 0 | 0 | 0 | 0 | 0 | 0 | 0 | 0 | 0 | 0 | 0 | 0 | 0 | 0 | 0 | 0 | 0 | 0 | 0 | 0 | 0 | 0 |
| CC[C@@H]1C(=O)N(C)c2cnc(Nc3ccc(C(=O)N[C@H]4CC[C@H](N5CCN(CC6CC6)CC5)CC4)cc3OC)nc2N1C(C)C [Volasertib] | 15.5 | 12 | 11.2 | 19.9 | 8.07 | 4.27 | 12.9 | 8.92 | 9.68 | 7.64 | 8.16 | 9.58 | 3.79 | 12.6 | 15.1 | 16.3 | 14.8 | 5.3 | 10.3 | 0 | 10.7 | 0 | 7.16 |
| CCc1cnn2c(NCc3ccc[n+]([O-])c3)cc(N3CCCC[C@H]3CCO)nc12 [Dinaciclib] | 17.8 | 16 | 19.1 | 25.1 | 18.3 | 7.54 | 20.7 | 12.9 | 18.7 | 13.6 | 16.6 | 25.4 | 14.9 | 25.4 | 19.6 | 20.6 | 18.3 | 18.2 | 19.8 | 9.14 | 12.4 | 19.6 | 11.4 |
| CO[C@H]1C[C@@H]2CC[C@@H](C)[C@@](O)(O2)C(=O)C(=O)N2CCCC[C@H]2C(=O)O[C@H]([C@H](C)C[C@@H]2CC[C@@H](O)[C@H](OC)C2)CC(=O)[C@H](C)/C=C(\C)[C@@H](O)[C@@H](OC)C(=O)[C@H](C)C[C@H](C)/C=C/C=C/C=C/1C [Sirolimus] | 5.41 | 6.86 | 5.31 | 5.69 | 2.79 | 6.47 | 3.52 | 0 | 7.08 | 6 | 1.94 | 0 | 3.34 | 8.85 | 9.21 | 7.01 | 12.2 | 2.98 | 0 | 0 | 0 | 0 | 0 |
| CC/C(=C(\c1ccccc1)c1ccc(OCCN(C)C)cc1)c1ccccc1 [Tamoxifen] | 1.68 | 5.28 | 0 | 1.07 | 0 | 0 | 0 | 0 | 0 | 0.0022 | 0 | 0 | 1.17 | 0 | 0 | 4.03 | 0 | 0 | 0 | 0 | 0 | 3.42 | 0 |
| CN1CCc2c(c3ccccc3n2Cc2ccc(C(=O)NO)cc2)C1 [Tubastatin A] | 0 | 0 | 2.45 | 1.22 | 0 | 0 | 0 | 0 | 0 | 0 | 0 | 0 | 1.2 | 0.989 | 0.314 | 11.2 | 0 | 0 | 0 | 0 | 0 | 1.42 | 0 |
